For eleven compounds, DC50 and IC50 results are on record in patent US20250277012A1 (Protagonist Therapeutics, Inc., priority 2021, published 2025).

Experiment [1] addresses T1, ferroportin (Homo sapiens, UniProt Q9NP59).
T1 sequence (Q9NP59 1-571): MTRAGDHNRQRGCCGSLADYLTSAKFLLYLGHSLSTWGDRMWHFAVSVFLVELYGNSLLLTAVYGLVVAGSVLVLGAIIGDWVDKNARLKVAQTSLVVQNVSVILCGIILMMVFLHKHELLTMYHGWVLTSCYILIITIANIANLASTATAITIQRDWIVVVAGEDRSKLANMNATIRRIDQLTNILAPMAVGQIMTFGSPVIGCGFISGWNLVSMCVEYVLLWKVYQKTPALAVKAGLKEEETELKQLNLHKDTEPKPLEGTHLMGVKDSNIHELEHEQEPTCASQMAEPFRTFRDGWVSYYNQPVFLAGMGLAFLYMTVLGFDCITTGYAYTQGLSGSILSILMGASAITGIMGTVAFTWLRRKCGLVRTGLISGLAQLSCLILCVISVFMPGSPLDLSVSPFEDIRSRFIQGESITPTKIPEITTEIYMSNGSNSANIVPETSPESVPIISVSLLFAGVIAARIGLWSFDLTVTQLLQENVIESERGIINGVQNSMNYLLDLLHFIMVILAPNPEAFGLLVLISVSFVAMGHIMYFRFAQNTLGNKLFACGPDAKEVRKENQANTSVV
Kind of experiment: FPN activity assay: ferroportin-GFP internalization/degradation in HEK293 cells. Format: cell-based. Also noted: expressed in transfected cells. The settings on record: read-out: FPN IC50. Here is the method: Following internalization, the ferroporin protein is degraded.
A retro inverse peptide is a peptide with a reversed sequence in all D amino acids. An example is that Hy-Glu-Thr-His-NH2 becomes Hy-DHis-DThr-DGlu-NH2. The EC50 of these reference compounds for ferroportin internalization/degradation was determined according to the FPN activity assay described above. These peptides served as control standards.

The target in experiment [2] is T1, ferroportin. In words: T47D cell-based ferroportin internalization assay in presence of mouse serum albumin (MSA). Also noted: a human breast carcinoma adherent cell line which endogenously expresses ferroportin; host or cells: T47D. In short, it runs like this:
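Peptide potency for inducing ferroportin internalization was measured in T47D cells in the presence of serum albumin. Cells grown in RPMI with fetal bovine serum were seeded in 96-well plates at 80-100 k cells per well in 100 ul and rested overnight. Dilution series of test peptides were preincubated 30 min at room temperature, then added to the cells after the medium was aspirated.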

Where [3] appears, read: ferroportin-GFP internalization/degradation, HEK293 cells, Table 6E.
Where [4] appears, read: T47D internalization assay in presence of mouse serum albumin (MSA), Table 6E.
Where [5] appears, read: Table 6E, ferroportin-GFP internalization/degradation, at least 18 hours incubation.
Setting [6] is: Table 6E, T47D internalization assay with MSA.
Where [7] appears, read: ferroportin-GFP HEK293 cells, at least 18 hours.
The mark [8] stands for this setting: T47D cells, 0.5% mouse serum albumin, 1 hr incubation.

The structures appear in SMILES notation. Where two headings read alike, the source gives them in different places. Starred links: 1 amine or outer side, 2 acyl side, 3 side chain; linkers in the order of their positions; H or OH if unused. Positions of bridges follow the written chain, without caps; N, C: chain ends. Non-standard residues stand in square brackets, D forms with d. Residues, ends and D or L forms follow the SMILES beside them. Groups on a side chain read outwards from the residue. *: point of attachment. X1 = C[N+](C)(CCNC(=O)CCCCCCCCCCCCCCCCC(=O)O)CC(=O)*; Bip = N[C@@H](Cc1ccc(-c2ccccc2)cc1)C(=O)O; C18 diacid = O=C(O)CCCCCCCCCCCCCCCCC(=O)*; Dip = N[C@H](C(=O)O)C(c1ccccc1)c1ccccc1; γGlu = O=C(O)[C@H](CCC(=O)[*:2])N[*:1]; Palmitoyl = CCCCCCCCCCCCCCCC(=O)*; NMeF = CN[C@@H](Cc1ccccc1)C(=O)O; β3hF = N[C@H](CC(=O)O)Cc1ccccc1; X3 = CCCCCCCCCCCCCCCC(=O)NCCC*; NMeK = CN[C@@H](CCCCN)C(=O)O; αMeK = C[C@](N)(CCCCN)C(=O)O; Isovaleryl = CC(C)CC(=O)*; hCys = N[C@@H](CCS)C(=O)O; Dab = NCC[C@H](N)C(=O)O; Dap = NC[C@H](N)C(=O)O; AEEA = NCCOCCOCC(=O)O; Inp = O=C(O)C1CCNCC1; Ahx = NCCCCCC(=O)O

Consider `CC(C)CC(=O)N[C@@H](CCC(=O)O)C(=O)N[C@H](C(=O)N[C@@H](Cc1c[nH]cn1)C(=O)N[C@H](C(=O)N1CCC[C@H]1C(=O)N[C@H]1CSSC[C@@H](C(=O)N[C@@](C)(CCCCNC(=O)COCCOCCNC(=O)COCCOCCNC(=O)[C@H](CN)NC(=O)CCCCCCCCCCCCCCCCC(=O)O)C(=O)N[C@H](CC(=O)N[C@H](CCCCN)C(N)=O)Cc2ccccc2)NC1=O)C(c1ccccc1)c1ccccc1)[C@@H](C)O` [compound 302] (Isovaleryl-ETH[Dip]PCC[αMeK]([AEEA-AEEA-Dap-C18 diacid])[β3hF][dK]-NH2; disulfide 6-7), for which, at ferroportin [1] (setting [3]), the DC50 lay in the range of 10 to 100 nM. On ferroportin [2] (setting [4]), the 50% inhibitory concentration (IC50) was in the range of 10 to 100 nM.
In the case of `C[C@@H](O)[C@H](NC(=O)[C@H](CCC(=O)O)NC(=O)C1CCNCC1)C(=O)N[C@@H](Cc1c[nH]cn1)C(=O)N[C@H](C(=O)N1CCC[C@H]1C(=O)N[C@H]1CSSC[C@@H](C(=O)N(C)[C@@H](CCCCNC(=O)COCCOCCNC(=O)COCCOCCNC(=O)[C@H](CN)NC(=O)CCCCCCCCCCCCCCCCC(=O)O)C(=O)N[C@H](CC(=O)N[C@H](CCCCN)C(N)=O)Cc2ccccc2)NC1=O)C(c1ccccc1)c1ccccc1` [compound 300] (H-[Inp]ETH[Dip]PCC[NMeK]([AEEA-AEEA-Dap-C18 diacid])[β3hF][dK]-NH2; disulfide 7-8), the DC50 at ferroportin [1] (setting [3]) is 100 to 500 nM. Moreover, at ferroportin [2] (setting [4]), the IC50 fell in the range of 100 to 500 nM.
Consider `CC(C)CC(=O)N[C@@H](CCC(=O)O)C(=O)N[C@H](C(=O)N[C@@H](Cc1c[nH]cn1)C(=O)N[C@H](C(=O)N1CCC[C@H]1C(=O)N[C@H]1CSSC[C@@H](C(=O)N(C)[C@@H](CCCCNC(=O)CCCCCNC(=O)C[N+](C)(C)CCNC(=O)CCCCCCCCCCCCCCCCC(=O)O)C(=O)N[C@@H](Cc2ccc(-c3ccccc3)cc2)C(=O)N[C@H](CCCCN)C(N)=O)NC1=O)C(c1ccccc1)c1ccccc1)[C@@H](C)O` [compound 183] (Isovaleryl-ETH[Dip]PCC[NMeK]([Ahx-X1])[Bip][dK]-NH2; disulfide 6-7), for which the DC50 at ferroportin [1] (setting [5]) is 10 to 100 nM. For the same compound, the IC50 at ferroportin [2] (setting [6]) was 10 to 100 nM.
Consider `COC(=O)CC[C@H](NC(=O)CC(C)C)C(=O)N[C@@H](CO)C(=O)N[C@@H](Cc1c[nH]cn1)C(=O)N(C)[C@@H](Cc1ccccc1)C(=O)N1CCC[C@H]1C(=O)N[C@H]1CSSC[C@@H](C(=O)N(C)[C@@H](CCCCNC(=O)CCCCCNC(=O)C[N+](C)(C)CCNC(=O)CCCCCCCCCCCCCCCCC(=O)O)C(=O)N[C@H](C(=O)N[C@H](CCCCN)C(N)=O)C(c2ccccc2)c2ccccc2)NC1=O` [compound 148] (Isovaleryl-E(OMe)SH[NMeF]PCC[NMeK]([Ahx-X1])[Dip][dK]-NH2; disulfide 6-7), for which the DC50 at ferroportin [1] (setting [5]) was more than 500 nM. In addition, the IC50 on ferroportin [2] (setting [6]) is more than 500 nM.
As for `COC(=O)CCC(CCCC(C)C)C(=O)N[C@H](C(=O)N[C@@H](Cc1c[nH]cn1)C(=O)N[C@H](C(=O)N1CCC[C@H]1C(=O)N[C@H]1CSSC[C@@H](C(=O)N(C)[C@@H](CCCCNC(=O)CCCCCNC(=O)C[N+](C)(C)CCNC(=O)CCCCCCCCCCCCCCCCC(=O)O)C(=O)N[C@H](C(=O)N[C@H](CCCCN)C(N)=O)C(c2ccccc2)c2ccccc2)NC1=O)C(c1ccccc1)c1ccccc1)[C@@H](C)O` (single isomer, unassigned) [compound 138], at ferroportin [1] (setting [5]), the DC50 is 10 to 100 nM. Moreover, at ferroportin [2] (setting [6]), the half-maximal inhibitory concentration (IC50) fell in the range of 100 to 500 nM.
Taken in the same sequence, the figures for `CCCCCCCCCCCCCCCC(=O)NCCCSCC[C@H](NC(=O)[C@@H]1CSSC[C@H](NC(=O)[C@@H]2CCCN2C(=O)[C@@H](NC(=O)[C@H](Cc2cnc[nH]2)NC(=O)[C@@H](NC(=O)[C@H](CCC(=O)O)NC(=O)CC(C)C)[C@@H](C)O)C(c2ccccc2)c2ccccc2)C(=O)N1)C(=O)N[C@H](C(=O)N[C@H](CCCCN)C(N)=O)C(c1ccccc1)c1ccccc1` [compound 162] (Isovaleryl-ETH[Dip]PCC[hCys](X3)[Dip][dK]-NH2; disulfide 6-7) were 10 to 100 nM and 1 to 10 nM.
As to `CCCCCCCCCCCCCCCC(=O)NCCCCCC(=O)NCCCC[C@H](NC(=O)[C@@H]1CSSC[C@H](NC(=O)[C@@H]2CCCN2C(=O)[C@@H](NC(=O)[C@H](Cc2c[nH]cn2)NC(=O)[C@@H](NC(=O)[C@H](CCC(=O)O)NC(=O)CC(C)C)[C@@H](C)O)C(c2ccccc2)c2ccccc2)C(=O)N1)C(=O)N[C@H](CC(=O)N[C@H](CCCCN)C(N)=O)Cc1ccccc1` [Compd 39] (Isovaleryl-ETH[Dip]PCCK([Ahx-Palmitoyl])[β3hF][dK]-NH2; disulfide 6-7), the DC50 at ferroportin [1] (setting [7]) fell in the range of 10 to 100 nM. Also, at ferroportin [2] (setting [8]), the IC50 lay within 1 to 10 nM.
On to `CC(C)CC(=O)N[C@@H](CCC(=O)O)C(=O)N[C@H](C(=O)N[C@@H](Cc1c[nH]cn1)C(=O)N[C@H](C(=O)N1CCC[C@H]1C(=O)N[C@H]1CSSC[C@@H](C(=O)N(C)[C@@H](CCCCNC(=O)COCCOCCNC(=O)COCCOCCNC(=O)[C@H](CN)NC(=O)CCCCCCCCCCCCCCCCC(=O)O)C(=O)N[C@H](CC(=O)N[C@@H](CCN)C(N)=O)Cc2ccccc2)NC1=O)C(c1ccccc1)c1ccccc1)[C@@H](C)O` [compound 264] (Isovaleryl-ETH[Dip]PCC[NMeK]([AEEA-AEEA-Dap-C18 diacid])[β3hF][Dab]-NH2; disulfide 6-7), for which, at ferroportin [1] (setting [3]), the DC50 was in the range of 10 to 100 nM. For the same compound, the IC50 at ferroportin [2] (setting [4]) lay within 10 to 100 nM.
Regarding `CC[C@H](C)[C@@H]1NC(=O)[C@@H](NC(=O)[C@@H]2CCCN2C(=O)[C@@H](NC(=O)[C@H](Cc2c[nH]cn2)NC(=O)[C@@H](NC(=O)[C@H](CCC(=O)O)NC(=O)CC(C)C)[C@@H](C)O)C(c2ccccc2)c2ccccc2)CSSC[C@@H](C(=O)N[C@H](CC(=O)N[C@@H](CCCCNC(=O)COCCOCCNC(=O)COCCOCCNC(=O)CC[C@H](NC(=O)CCCCCCCCCCCCCCCCC(=O)O)C(=O)O)C(=O)N[C@H](CCCCN)C(N)=O)Cc2ccccc2)NC1=O` [Compd 36] (Isovaleryl-ETH[Dip]PCIC[β3hF]K([AEEA-AEEA-γGlu-C18 diacid])[dK]-NH2; disulfide 6-8), on ferroportin [1] (setting [7]), the DC50 is 10 to 100 nM. Also, the 50% inhibitory concentration (IC50) at ferroportin [2] (setting [8]) lay within 10 to 100 nM.
Regarding `CC(C)CC(=O)N[C@@H](CCC(=O)O)C(=O)N[C@H](C(=O)N[C@@H](Cc1c[nH]cn1)C(=O)N[C@H](C(=O)N1CCC[C@H]1C(=O)N[C@H]1CCSSCC[C@@H](C(=O)N[C@@H](CCCCNC(=O)COCCOCCNC(=O)COCCOCCNC(=O)[C@H](CN)NC(=O)CCCCCCCCCCCCCCCCC(=O)O)C(=O)N[C@H](CC(=O)N[C@H](CCCCN)C(N)=O)Cc2ccccc2)NC1=O)C(c1ccccc1)c1ccccc1)[C@@H](C)O` [compound 268] (Isovaleryl-ETH[Dip]P[hCys][hCys]K([AEEA-AEEA-Dap-C18 diacid])[β3hF][dK]-NH2; disulfide 6-7), the DC50 on ferroportin [1] (setting [3]) lay within 10 to 100 nM. Besides, the half-inhibitory concentration (IC50) on ferroportin [2] (setting [4]) lay within 10 to 100 nM.
`COC(=O)CC[C@H](NC(=O)CC(C)C)C(=O)N[C@H](C(=O)N[C@@H](Cc1c[nH]cn1)C(=O)N[C@H](C(=O)N1CCC[C@H]1C(=O)N[C@H]1CSSC[C@@H](C(=O)N(C)[C@@H](CCCCNC(=O)COCCOCCNC(=O)COCCOCCNC(=O)[C@H](CN)NC(=O)CCCCCCCCCCCCCCCCC(=O)O)C(=O)N[C@H](CC(N)=O)Cc2ccccc2)NC1=O)C(c1ccccc1)c1ccccc1)[C@@H](C)O` [compound 256] (Isovaleryl-E(OMe)TH[Dip]PCC[NMeK]([AEEA-AEEA-Dap-C18 diacid])[β3hF]-NH2; disulfide 6-7): the DC50 on ferroportin [1] (setting [3]) fell in the range of 1 to 10 nM. Moreover, the IC50 at ferroportin [2] (setting [4]) was in the range of 10 to 100 nM.
